These results are taken from ChEMBL document CHEMBL1201862, “PubChem BioAssay data set” (2004).

Some test systems named below: SNB-19; IGROV-1; T47D; NCI-H460; TK-10; SF-539; UACC-62; PC-3; MOLT-4; SN12C; U-251; MDA-N; HT-29; A549; HCT-15; OVCAR-8; A498; HOP-62; NCI-H226; Malme-3M.
Common to all, as to experiment: growth of human tumour cells (NCI), 48 h

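A five-concentration, 48-hour dose response in 96-well plates underlies each endpoint, interpolated linearly between surrounding concentrations. At the GI50, growth is halved.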 Activity calls are given as the source filed them. No stated cut-off is given here; in the data, active = GI50 up to about 1.1 µM and inactive = higher. Some results are limits rather than exact numbers.

In the case of `O=C(O)CCCc1ccc2ccccc2c1`, the GI50 in the assay with SNB-19, with IGROV-1, in the assay with T47D, in the assay on NCI-H460, in the assay with TK-10 and with SF-539 was > 100 µM (inactive) in each case. For the same molecule, the GI50 with UACC-62, in the assay on PC-3, in the assay with MOLT-4, with SN12C, in the assay on U-251 and in the assay on MDA-N was > 100 µM (inactive) throughout. The GI50 is > 100 µM (inactive) with HT-29; > 100 µM (inactive) in the assay with A549; more than 100 µM in the assay on HCT-15; > 100 µM (inactive) in the assay on OVCAR-8; > 100 µM (inactive) with A498; > 100 µM (inactive) with HOP-62.
For the molecule `N=C(N)SCc1ccc2c(c1)S(=O)(=O)c1ccccc1O2`, the GI50 in the assay with NCI-H226 is 16.7 µM (inactive); in the assay on SNB-19, 61.1 µM (inactive); with IGROV-1 it was 16.4 µM (inactive); in the assay on T47D, 22.5 µM (inactive); in the assay on NCI-H460 it was 19.6 µM (inactive); with TK-10, 15.7 µM (inactive). The GI50 with SF-539 was 26.1 µM (inactive); with UACC-62, 15.8 µM (inactive); in the assay with PC-3 it was 17.7 µM (inactive); in the assay with MOLT-4, 19.1 µM (inactive); with SN12C, 37.5 µM (inactive); in the assay with U-251, 18.1 µM (inactive). In addition, the GI50 with MDA-N was 17.7 µM (inactive); with HT-29, 15.6 µM (inactive); in the assay on A549, 19 µM (inactive); with HCT-15, 25.8 µM; in the assay on OVCAR-8, 30.1 µM (inactive); in the assay on A498 it was 17.5 µM (inactive). Further, the GI50 in the assay on HOP-62 is 19 µM (inactive).
`COc1ccc2c(c1)OC1c3ccccc3OCC21` (stereo not drawn): the GI50 in the assay on NCI-H226 is 47.1 µM (inactive); in the assay on SNB-19, 93.3 µM (inactive); in the assay with IGROV-1, > 100 µM (inactive); in the assay with T47D, 72.6 µM (inactive); in the assay with NCI-H460 it was 61.9 µM (inactive); in the assay on TK-10, > 100 µM (inactive). In addition, the GI50 in the assay on SF-539 is > 100 µM (inactive); in the assay with UACC-62, > 100 µM (inactive); with PC-3, > 100 µM (inactive); in the assay with MOLT-4, 27.7 µM (inactive); in the assay with SN12C, > 100 µM (inactive); in the assay on U-251, > 100 µM (inactive). The GI50 is 36.6 µM (inactive) with MDA-N; 25.6 µM (inactive) with HT-29; 62.7 µM in the assay with HCT-15; > 100 µM (inactive) in the assay on OVCAR-8; > 100 µM (inactive) in the assay on A498; > 100 µM (inactive) in the assay on HOP-62.
For `CCCCCCCCCC1(N=[N+]=[N-])C(=O)c2ccccc2N(C)C1=O` (stereo not drawn), the GI50 with SNB-19 is 54.7 µM (inactive); in the assay with IGROV-1, 27.2 µM (inactive); with T47D, 3.4 µM (inactive); with NCI-H460, 37.2 µM (inactive); in the assay with TK-10, 32.3 µM (inactive); in the assay on SF-539, 70 µM (inactive). Besides, the GI50 was 17.3 µM (inactive) with UACC-62; 19.4 µM (inactive) in the assay with PC-3; 28.1 µM (inactive) with Malme-3M; 7.13 µM (inactive) in the assay on MOLT-4; 26.1 µM (inactive) with SN12C; 2.22 µM (inactive) in the assay with U-251. The GI50 was 30.7 µM (inactive) with MDA-N; 30.4 µM (inactive) in the assay on HT-29; 25.5 µM (inactive) in the assay on A549; 30.3 µM with HCT-15; 20.8 µM (inactive) in the assay on A498; 35.8 µM (inactive) in the assay on HOP-62.
`CCCCCN1CCN(c2ncccn2)CC1`: the GI50 in the assay on SNB-19, in the assay with IGROV-1, in the assay with T47D, with TK-10, with SF-539 and in the assay on UACC-62 was > 100 µM (inactive) throughout. Moreover, the GI50 with PC-3, in the assay on Malme-3M, with SN12C, with U-251, in the assay on MDA-N and in the assay on HT-29 was > 100 µM (inactive) each time. Also, the GI50 in the assay with A549 is > 100 µM (inactive); with HCT-15 it was more than 100 µM; in the assay with OVCAR-8 it was > 100 µM (inactive); in the assay with A498, > 100 µM (inactive); in the assay on HOP-62, > 100 µM (inactive).
As for `CCOC(=O)c1c(Sc2ccc([N+](=O)[O-])cc2[N+](=O)[O-])nc2c3ccccc3ccn12`, the GI50 was 83.6 µM (inactive) in the assay with NCI-H226; > 68.1 µM (inactive) in the assay on SNB-19; > 31.6 µM (inactive) with IGROV-1; > 100 µM (inactive) in the assay on T47D; > 55.7 µM (inactive) in the assay on NCI-H460; > 55.7 µM (inactive) in the assay with TK-10. Further, the GI50 is 15 µM (inactive) with SF-539; > 39.8 µM (inactive) with UACC-62; > 100 µM (inactive) in the assay on PC-3; > 100 µM (inactive) with MOLT-4; 99.1 µM (inactive) with SN12C; 31.8 µM (inactive) in the assay on U-251. Besides, the GI50 was > 100 µM (inactive) in the assay on MDA-N; > 100 µM (inactive) in the assay with HT-29; > 100 µM (inactive) in the assay on A549; more than 100 µM in the assay on HCT-15; 33.8 µM (inactive) with OVCAR-8; 62.8 µM (inactive) in the assay on A498. For the same molecule, the GI50 in the assay on HOP-62 is 13.1 µM (inactive).
Consider `O=C1CCC[C@@H]2NC[C@@H](c3ccc4c(c3)OCO4)[C@H]12`, for which the GI50 in the assay with NCI-H226, in the assay with SNB-19, in the assay with IGROV-1, with T47D, with NCI-H460 and in the assay with TK-10 was > 25 µM (inactive) throughout. Also, the GI50 in the assay on UACC-62, in the assay with PC-3, in the assay with Malme-3M, with MOLT-4, in the assay with SN12C and in the assay on U-251 was > 25 µM (inactive) throughout. Besides, the GI50 with MDA-N was > 25 µM (inactive); with HT-29 it was > 25 µM (inactive); in the assay with A549, > 25 µM (inactive); with HCT-15, more than 25 µM; with OVCAR-8, > 25 µM (inactive); in the assay with A498, > 25 µM (inactive). Also, the GI50 in the assay with HOP-62 is > 25 µM (inactive).
Consider `CN(C)/N=N/c1nc2c(c(=O)n(C)c(=O)n2C)n1C`, for which the GI50 in the assay with NCI-H226 is > 100 µM (inactive); in the assay on SNB-19, > 100 µM (inactive); with IGROV-1, > 100 µM (inactive); in the assay on T47D it was 14.3 µM (inactive); with NCI-H460, > 100 µM (inactive); in the assay with TK-10, > 100 µM (inactive). Besides, the GI50 in the assay on UACC-62, in the assay with PC-3, with Malme-3M, with MOLT-4, in the assay on SN12C and in the assay on U-251 was > 100 µM (inactive) each time. For the same molecule, the GI50 in the assay with MDA-N is > 100 µM (inactive); with HT-29, > 100 µM (inactive); in the assay with A549, > 100 µM (inactive); with HCT-15 it was more than 100 µM; with OVCAR-8, > 100 µM (inactive); in the assay on A498, > 100 µM (inactive). In addition, the GI50 in the assay with HOP-62 was > 100 µM (inactive).
For the molecule `O=C(Cn1c2ccc(Br)cc2c2nc3ccccc3nc21)Nc1ccccc1`, the GI50 with NCI-H226 is 32.6 µM (inactive); in the assay on SNB-19, 39.7 µM (inactive); with IGROV-1 it was 15.3 µM (inactive); with T47D it was 20.1 µM (inactive); with NCI-H460, 31.8 µM (inactive); in the assay on TK-10 it was 27.7 µM (inactive). Further, the GI50 in the assay on UACC-62 is 48.1 µM (inactive); in the assay on PC-3, 18 µM (inactive); in the assay on Malme-3M, 28.6 µM (inactive); in the assay with MOLT-4, > 100 µM (inactive); in the assay with SN12C, 42.6 µM (inactive); in the assay with U-251, 24 µM (inactive). The GI50 in the assay with MDA-N was 37.7 µM (inactive); in the assay on HT-29 it was 24.8 µM (inactive); in the assay with A549, 17 µM (inactive); in the assay with HCT-15, 25.1 µM; in the assay with OVCAR-8, 15.1 µM (inactive); in the assay with A498 it was 34 µM (inactive). Further, in the assay with HOP-62, the GI50 was 27.9 µM (inactive).
Turning to `CCOC(=O)c1c(C)nc2c(c1-c1cn(-c3ccccc3)nc1-c1ccccc1)C(=O)c1ccccc1-2`, the GI50 in the assay with NCI-H226, in the assay on SNB-19, with IGROV-1, in the assay with T47D, in the assay with TK-10 and in the assay on UACC-62 was > 100 µM (inactive) each time. The GI50 in the assay on PC-3, in the assay on Malme-3M, with MOLT-4, with SN12C, in the assay with U-251 and with MDA-N was > 100 µM (inactive) each time. Further, the GI50 in the assay on HT-29 is 13.8 µM (inactive); in the assay with A549 it was > 100 µM (inactive); in the assay on HCT-15, more than 100 µM; in the assay with OVCAR-8, > 100 µM (inactive); in the assay on A498, > 100 µM (inactive); in the assay with HOP-62, > 100 µM (inactive).
Take `COc1cc(NS(C)(=O)=O)ccc1Nc1c2ccccc2nc2ccccc12` [AMSACRINE]: the GI50 in the assay with NCI-H226 is 0.125 µM (active); in the assay with SNB-19 it was 0.296 µM (active); in the assay on IGROV-1, 2.4 µM (inactive); in the assay with T47D, 0.441 µM (active); with NCI-H460, 0.028 µM (active); with TK-10 it was 2.63 µM (inactive). For the same molecule, the GI50 is 0.207 µM (active) in the assay on SF-539; 0.285 µM (active) with UACC-62; 0.415 µM (active) in the assay on PC-3; 0.611 µM (active) with Malme-3M; 0.0332 µM (active) with MOLT-4; 0.131 µM (active) with SN12C. For the same molecule, the GI50 in the assay with U-251 is 0.166 µM (active); with MDA-N, 3.32 µM (inactive); in the assay on HT-29, 1.77 µM (inactive); in the assay with A549, 0.049 µM (active); in the assay on HCT-15, 0.716 µM; in the assay on OVCAR-8, 0.571 µM (active). In the assay with HOP-62, the GI50 was 0.084 µM (active).
